Data published in article PMC7315563, “Bioactive fluorenes. Part III: 2,7-dichloro-9H-fluorene-based thiazolidinone and azetidinone analogues as anticancer and antimicrobial against multidrug resistant strains agents” (BMC Chemistry, 2020).
In brackets after ≈: the same amount, converted by molar mass.

Experiments:
[1] = system: A549 human lung cancer cells; assay: cell viability assay (MTT); format: cell-based; settings: 24 h; for viability at 1 µg/mL: read-out: Validity (%) for sample concentrations (µg/mL) 1; for viability at 10 µg/mL: read-out: Validity (%) for sample concentrations (µg/mL) 10; for viability at 31.25 µg/mL: read-out: Validity (%) for sample concentrations (µg/mL) 31.25; for viability at 62.5 µg/mL: 62.50 µg/mL, read-out: Validity (%) for sample concentrations (µg/mL) 62.50; for viability at 125 µg/mL: read-out: Validity (%) for sample concentrations (µg/mL) 125; for viability at 250 µg/mL: read-out: Validity (%) for sample concentrations (µg/mL) 250; for viability at 500 µg/mL: read-out: Validity (%) for sample concentrations (µg/mL) 500; for viability at 1000 µg/mL: read-out: Validity (%) for sample concentrations (µg/mL) 1000
Method: WI-38 normal lung fibroblast cells, A549 lung cancer cells, and MDA-MB-231 breast cancer cells were obtained from VACSERA—Cell Culture Unit, Cairo, Egypt. The cell lines were originally obtained from the American Tissue Culture Collection (ATCC). WI-38, A549, and MDA-MB-231 cell lines were cultured in RPMI-1640 medium supplemented with 10% inactivate fetal bovine serum (FBS) and 1% penicillin/streptomycin were bought (Gibco, Invitrogen, CA). WI-38, A549, and MDA-MB-231 cells were seeded into 96-well plates (at a density of 5000 cells/well). […] Cell viability was then assessed using the MTT assay (Sigma Aldrich, St. Louis, MO, USA), and the absorbance was read at 570 nm using an ELISA microplate reader (Molecular Devices, Downingtown, PA, USA).

[2] = system: Staphylococcus aureus (S. aureus), multidrug resistant clinical isolate; assay: agar well diffusion assay; format: cell-based; settings: Staphylococcus aureus; S. aureus; 500 µg/mL of tested compound; 24 h
Excerpt: All microbial strains were kindly provided from the department of Medical Microbiology and Immunology faculty of Medicine Assiut University, these clinical isolates were obtained from clinical cases of infections admitted to Assiut University hospital as urinary tract infections, corneal ulcers, bacterial and fungal pneumonia, otomycosis, oral thrush and wound infections.
The clinical isolates used were multidrug resistant strains, they were resistant to β lactam (penicillin, amoxacillin, oxacillin), cephalosporins (cefazolin, cefaclor and cefepime) and macrolides (erythromycin and clarithromycin), they included Gram positive bacteria as Staphylococcus aureus (S. aureus), Methicillin-resistant Staphylococcus aureus (MRSA), Streptococcus pneumoniae (S. pneumoniae), and Gram negative bacteria as Escherichia coli (E. coli), Klebsiella pneumoniae (K. pneumoniae), Pseudomonas aeruginosa (P. aeruginosa), and Acinetobacter baumannii (A. baumannii). The fungal strains that were tested are Aspergillus flavus (A. flavus), A. niger (A. niger) and Candida albicans (C. albicans).
The antimicrobial activity of the fluorene derivatives was initially evaluated by agar well diffusion assay. Mueller–Hinton agar (CM0337) was poured into Petri dishes at 50–60 °C and left to solidify for 15 min. Subsequently, overnight microbial suspensions of tested strains was adjusted to turbidity of 0.5 McFarland Standard, which equals to 1–2 × 10^8 CFU/mL for bacteria and 1–5 × 10^6 for fungi. The microbial inoculums were then diluted in 1:100 ratio in case of bacteria and 1:10 ratio in case of fungi in order to get 1–5 × 10^5 CFU/mL. a sterile cotton swab was dipped into the adjusted microbial suspension and the Mueller–Hinton agar plates were inoculated by evenly streaking cotton swab over the agar medium. Then wells with a diameter of 0.5 cm were cut in the medium with a sterile cork borer. Stock solutions of the flourene derivatives were diluted in DMSO 1% to get 500 μg/mL concentrations. The tested flourene derivatives and controls (50 μL) were dispensed into the wells. The plates were incubated for 24 h at 37 °C for bacteria and C. albicans while at 25 °C for A. falvus and A. niger. The diameters of zones of inhibition (ZOI) around the wells were measured in mm. Following control agents were used: positive control agents—vancomycin (50 μg/mL) for Gram positive bacteria, gentamicin (10 μg/mL) (for Gram negative bacteria) and fluconazole 25 μg/mL for fungi and negative control agent is 1% DMSO.

[3] = system: MDA-MB-231 human breast cancer cells; assay: cell viability assay (MTT); format: cell-based; settings: 24 h; for viability at 1 µg/mL: read-out: Validity (%) for sample concentrations (µg/mL) 1; for viability at 10 µg/mL: read-out: Validity (%) for sample concentrations (µg/mL) 10; for viability at 31.25 µg/mL: read-out: Validity (%) for sample concentrations (µg/mL) 31.25; for viability at 62.5 µg/mL: read-out: Validity (%) for sample concentrations (µg/mL) 62.5; for viability at 125 µg/mL: read-out: Validity (%) for sample concentrations (µg/mL) 125; for viability at 250 µg/mL: read-out: Validity (%) for sample concentrations (µg/mL) 250; for viability at 500 µg/mL: read-out: Validity (%) for sample concentrations (µg/mL) 500
Method: (§1) WI-38 normal lung fibroblast cells, A549 lung cancer cells, and MDA-MB-231 breast cancer cells were obtained from VACSERA—Cell Culture Unit, Cairo, Egypt. The cell lines were originally obtained from the American Tissue Culture Collection (ATCC). WI-38, A549, and MDA-MB-231 cell lines were cultured in RPMI-1640 medium supplemented with 10% inactivate fetal bovine serum (FBS) and 1% penicillin/streptomycin were bought (Gibco, Invitrogen, CA). WI-38, A549, and MDA-MB-231 cells were seeded into 96-well plates (at a density of 5000 cells/well). On the following day, cells were treated with different concentrations (0, 1, 10, 31.25, 62.5, 125, 250, 500 µg/mL) of 16 fluorene derivatives in fresh medium and incubated for another 24 h. Cell viability was then assessed using the MTT assay (Sigma Aldrich, St. Louis, MO, USA), and the absorbance was read at 570 nm using an ELISA microplate reader (Molecular Devices, Downingtown, PA, USA).

[4] = system: WI-38 human normal fibroblast cells; assay: cell viability assay (MTT); format: cell-based; settings: 24 h; for viability at 31.25 µg/mL: read-out: Validity (%) for sample concentrations (µg/mL) 31.25; for viability at 62.5 µg/mL: 62.50 µg/mL, read-out: Validity (%) for sample concentrations (µg/mL) 62.50; for viability at 125 µg/mL: read-out: Validity (%) for sample concentrations (µg/mL) 125; for viability at 250 µg/mL: read-out: Validity (%) for sample concentrations (µg/mL) 250; for viability at 500 µg/mL: read-out: Validity (%) for sample concentrations (µg/mL) 500
Method: as §1

`O=C1CSC(c2ccccc2)N1c1nc(-c2cc(Cl)cc3c2-c2ccc(Cl)cc2C3)cs1` (stereo not shown) [5a, 3-(4-(2,7-Dichloro-9H-fluoren-4-yl)thiazol-2-yl)-2-phenylthiazolidin-4-one] showed a viability at 1 µg/mL [1] of 95.6%, a viability at 10 µg/mL [1] of 91.4% and a viability at 31.25 µg/mL [1] of 86.8%. It also gave a viability at 62.5 µg/mL [1] of 82.3%, a viability at 125 µg/mL [1] of 79.7% and a viability at 250 µg/mL [1] of 75.4%. The viability at 500 µg/mL [1] was 45.5%, the viability at 1000 µg/mL [1] was 12.5% and the IC50 [1] was 413 µg/mL (≈ 834 µM). The zone of inhibition at 500 µg/mL [2] was 3 mm, the melting point was 79 to 82 °C and the viability at 1 µg/mL [3] was 98.3%. For the same compound, the viability at 10 µg/mL [3] was 96.7%, the viability at 31.25 µg/mL [3] was 93.6% and the viability at 62.5 µg/mL [3] was 86.1%. The viability at 125 µg/mL [3] was 85.9%, the viability at 250 µg/mL [3] was 82.5% and the viability at 500 µg/mL [3] was 75.8%. The IC50 [3] was greater than 500 µg/mL, the viability at 31.25 µg/mL [4] was 89.8% and the viability at 62.5 µg/mL [4] was 83.3%. It also gave a viability at 125 µg/mL [4] of 80.6%, a viability at 250 µg/mL [4] of 77.3% and a viability at 500 µg/mL [4] of 74.3%. The IC50 [4] was greater than 500 µg/mL.
With `COc1ccc(C2SCC(=O)N2c2nc(-c3cc(Cl)cc4c3-c3ccc(Cl)cc3C4)cs2)cc1` (stereo not shown) [5b, 3-(4-(2,7-Dichloro-9H-fluoren-4-yl)thiazol-2-yl)-2-(4-methoxyphenyl)thiazolidin-4-one] the viability at 1 µg/mL [1] was 91.2%, the viability at 10 µg/mL [1] was 85.4% and the viability at 31.25 µg/mL [1] was 84%. The viability at 62.5 µg/mL [1] was 67.8%, the viability at 125 µg/mL [1] was 64.3% and the viability at 250 µg/mL [1] was 57.1%. For the same compound, the viability at 500 µg/mL [1] was 44.2%, the viability at 1000 µg/mL [1] was 17.8% and the IC50 [1] was 402 µg/mL (≈ 765 µM). For the same compound, the zone of inhibition at 500 µg/mL [2] was 4 mm, the melting point was 74 to 76 °C and the viability at 1 µg/mL [3] was 97.8%. For the same compound, the viability at 10 µg/mL [3] was 97.4%, the viability at 31.25 µg/mL [3] was 90.8% and the viability at 62.5 µg/mL [3] was 88.6%. The viability at 125 µg/mL [3] was 87.3%, the viability at 250 µg/mL [3] was 83.6% and the viability at 500 µg/mL [3] was 81.5%. The IC50 [3] was greater than 500 µg/mL, the viability at 31.25 µg/mL [4] was 99.4% and the viability at 62.5 µg/mL [4] was 94.4%. It also gave a viability at 125 µg/mL [4] of 91.3%, a viability at 250 µg/mL [4] of 81.2% and a viability at 500 µg/mL [4] of 79%. For the same compound, the IC50 [4] was greater than 500 µg/mL.
`O=C1CSC(c2ccc(Cl)cc2)N1c1nc(-c2cc(Cl)cc3c2-c2ccc(Cl)cc2C3)cs1` (stereo not shown) [5c, 2-(4-Chlorophenyl)-3-(4-(2,7-dichloro-9H-fluoren-4-yl)thiazol-2-yl)thiazolidin-4-one] gave a viability at 1 µg/mL [1] of 91.2%, a viability at 10 µg/mL [1] of 90.1% and a viability at 31.25 µg/mL [1] of 89.2%. The viability at 62.5 µg/mL [1] was 80.9%, the viability at 125 µg/mL [1] was 62.6% and the viability at 250 µg/mL [1] was 59.8%. It also gave a viability at 500 µg/mL [1] of 46.3%, a viability at 1000 µg/mL [1] of 14.9% and an IC50 [1] of 415 µg/mL (≈ 783 µM). The zone of inhibition at 500 µg/mL [2] was 3 mm, the melting point was 83 to 85 °C and the viability at 1 µg/mL [3] was 97.1%. The viability at 10 µg/mL [3] was 95.7%, the viability at 31.25 µg/mL [3] was 95.8% and the viability at 62.5 µg/mL [3] was 92.1%. The viability at 125 µg/mL [3] was 86.3%, the viability at 250 µg/mL [3] was 84.5% and the viability at 500 µg/mL [3] was 83%. The IC50 [3] was greater than 500 µg/mL, the viability at 31.25 µg/mL [4] was 89.7% and the viability at 62.5 µg/mL [4] was 87.3%. The viability at 125 µg/mL [4] was 83.8%, the viability at 250 µg/mL [4] was 77.5% and the viability at 500 µg/mL [4] was 71.3%. It also gave an IC50 [4] greater than 500 µg/mL.
`O=C1CSC(c2ccc(Br)cc2)N1c1nc(-c2cc(Cl)cc3c2-c2ccc(Cl)cc2C3)cs1` (stereo not shown) [5d, 2-(4-Bromophenyl)-3-(4-(2,7-dichloro-9H-fluoren-4-yl)thiazol-2-yl)thiazolidin-4-one] showed a viability at 1 µg/mL [1] of 98.4%, a viability at 10 µg/mL [1] of 91.7% and a viability at 31.25 µg/mL [1] of 88.9%. The viability at 62.5 µg/mL [1] was 82.2%, the viability at 125 µg/mL [1] was 78.8% and the viability at 250 µg/mL [1] was 73%. For the same compound, the viability at 500 µg/mL [1] was 58.6%, the viability at 1000 µg/mL [1] was 18.1% and the IC50 [1] was 574 µg/mL (≈ 999 µM). It also gave a zone of inhibition at 500 µg/mL [2] of 4 mm, a melting point of 155 to 157 °C and a viability at 1 µg/mL [3] of 96.8%. The viability at 10 µg/mL [3] was 94.4%, the viability at 31.25 µg/mL [3] was 93.7% and the viability at 62.5 µg/mL [3] was 92.4%. It also gave a viability at 125 µg/mL [3] of 88.4%, a viability at 250 µg/mL [3] of 87.2% and a viability at 500 µg/mL [3] of 85.7%. It also gave an IC50 [3] greater than 500 µg/mL, a viability at 31.25 µg/mL [4] of 94.9% and a viability at 62.5 µg/mL [4] of 88.5%. It also gave a viability at 125 µg/mL [4] of 86.1%, a viability at 250 µg/mL [4] of 50.7% and a viability at 500 µg/mL [4] of 44.2%. The IC50 [4] was 268 µg/mL (≈ 467 µM).
